The source of these data is patent US20250339405A1, “a-SYNUCLEIN AGGREGATE BINDING AGENT AND IMAGING METHOD” (National Institutes for quantum and Radiological Science …, priority 2019, published 2025).

For experiment [1], the target named is T1, α-synuclein aggregate (Homo sapiens, UniProt P37840). As to the kind of experiment: Binding to α-synuclein aggregate versus tau aggregate (inventors' finding, no method given).
Experiment [2] deals with T2, α-synuclein aggregate formed in the brain of the DLB patient (Homo sapiens, UniProt P37840).
T2 construct: Postfixed fresh frozen sections of the amygdala tissue of the DLB patient; from tissue; host or cells: post-mortem human DLB amygdala, frozen sections
As to the kind of experiment: In vitro fluorescence microscope measurement, DLB patient brain sections. As to conditions: for binding to the α-synuclein aggregate formed in the brain of the DLB patient, reactivity relative to PBB3: 30 μM compound, 50% ethanol, 30 minutes, room temperature, amygdala sections. Format: binding. An excerpt: Postmortem human brains were obtained from autopsies carried out with respect to a dementia with Lewy bodies (DLB) and Alzheimer's disease (AD) patients.
A frozen DLB tissue was sliced with a thickness of 20 μm in a cryostat (HM560, Carl Zeiss).
Postfixed fresh frozen sections of the amygdala tissue of the DLB patient and formalin fixed, paraffin embedded sections of a deparaffinized middle frontal gyrus tissue of the AD patient were used. Thirty μM of each of the above compounds and brain sections were incubated in a 50% ethanol solution for 30 minutes at room temperature. The sections were then washed twice, i.e., washed with a 50% ethanol solution for 5 minutes and with ultrapure water for 3 minutes. After mounting the sections using a mounting medium (VECTASHIELD H-1000, Vector Laboratories), images of lesion-enriched areas on the sections were obtained using a fluorescence microscope (DM4000, Leica). Analysis software (Image J) was used to quantify the fluorescence of lesion-enriched and lesion-free (background) areas.

The target of experiment [3] is T1, α-synuclein aggregate. As to conditions: background art, cited from earlier work.
Experiment [4] deals with T3, α-synuclein lesions (Mus musculus, UniProt O55042).
T3 construct: from tissue; host or cells: brain of C57BL/6 mice inoculated in the striatum with recombinant murine α-synuclein fibrils (made in E. coli)
As to the kind of experiment: Ex vivo imaging of α-synuclein fibril-injected model mouse brain. Format: in vivo. The note with it: 1.66 mg/kg; brains collected 90 minutes after C05-05 or 120 minutes after BF-227. The method, then: A model mouse at 6 weeks after the injection of the α-synuclein fiber solution was anesthetized with 1.5% (v/v) isoflurane in a manner similar to that described in “(Preparation of α-synuclein fibril-injected mouse model)” above, and C05-05 (1.66 mg/kg) or BF-227 (1.66 mg/kg) was intraperitoneally administered.
The brains were collected and frozen 90 minutes after the administration of C05-05 (or 120 minutes after the administration of BF-227), and frozen sections with the thickness of 20 μm were prepared in a cryostat (HM560). After mounting the sections using a mounting medium (VECTASHIELD H-1000), images of α-synuclein aggregate-enriched areas on the sections were obtained using a fluorescence microscope (DM4000).
Moreover, the same sections were immersed and fixed overnight in a phosphate buffer solution containing 4% paraformaldehyde. The brain after fixation was washed under running water and then treated with an autoclave for the antigen retrieval. Immunohistochemical staining with an anti-phosphorylated α-synuclein monoclonal antibody (pS129, abcam, ab59264) (1:1000) was carried out, and after mounting the sections using a mounting medium (VECTASHIELD H-1000), images of the same areas were obtained using the fluorescence microscope (DM4000). FIG. 7(a) contains images showing the case where C05-05 was administered, and FIG. 7(b) is images showing the case where BF-227 was administered.

Experiment [5] concerns aggregate of tau or amyloid-β formed in the brain of the AD patient. As to the kind of experiment: In vitro fluorescence microscope measurement, AD patient brain sections. Format: binding, human. The note with it: AD and DLB patient brain sections, 30 μM.
Description: Postmortem human brains were obtained from autopsies carried out with respect to a dementia with Lewy bodies (DLB) and Alzheimer's disease (AD) patients. Moreover, an AD brain tissue was fixed in 10% neutral buffered formalin, embedded in a paraffin block, and sliced with a thickness of 6 μm. Postfixed fresh frozen sections of the amygdala tissue of the DLB patient and formalin fixed, paraffin embedded sections of a deparaffinized middle frontal gyrus tissue of the AD patient were used. Thirty μM of each of the above compounds and brain sections were incubated in a 50% ethanol solution for 30 minutes at room temperature. The sections were then washed twice, i.e., washed with a 50% ethanol solution for 5 minutes and with ultrapure water for 3 minutes. After mounting the sections using a mounting medium ([sequence] H-1000, Vector Laboratories), images of lesion-enriched areas on the sections were obtained using a fluorescence microscope (DM4000, Leica). Analysis software (Image J) was used to quantify the fluorescence of lesion-enriched and lesion-free (background) areas.
For experiment [6], the target named is T3, α-synuclein lesions. As to the kind of experiment: In vivo two-photon laser scanning fluorescence microscopy of α-synuclein fibril-injected model mouse. The note with it: tail vein, 50 μl of 0.05% solution; 90 minutes after C05-05 or 30 minutes after PBB3. The method, then: Note that the α-synuclein aggregate was inoculated into the striatum of the mouse with the following manner. First, hair on the head of 9-week-old C57BL/6 male mouse anesthetized with 1.5% (v/v) isoflurane was removed, and the scalp was disinfected with isodine, followed by application of xylocaine and incision in the scalp to expose the skull. Then, a hole was drilled in the skull at a position of 0.05 mm posterior to the bregma and 2 mm lateral to the midline, and 3 μl of an α-synuclein fiber solution (murine α-synuclein fiber (4 mg/ml) in saline) was injected into a position […] ventral to the brain surface using a glass pipette, and then the scalp was returned and sutured.
A model mouse was anesthetized with 1.5% (v/v) isoflurane 6 weeks after the injection of the α-synuclein fiber solution, and a cranial window was provided according to the Seylaz-Tomita method (Tomita et al. J Cereb Blood Flow Metab 25, 858-67, 2005). The mouse was anesthetized with 1.5% (v/v) isoflurane 2 weeks after the generation of the cranial window, and 50 μl of a solution of DMSO/physiological saline water=1:1 containing 0.05% of C05-05 or PBB3 was administered via the tail vein. The mouse was fixed under a two-photon laser fluorescence microscope 90 minutes after administration of C05-05 or 30 minutes after administration of PBB3, and 100 μl of a saline solution containing 5 mM of Sulforhodamine 101 was administered intraperitoneally, followed by intravital two-photon fluorescence imaging at an excitation wavelength of 900 nm. The detection wavelengths for C05-05 and PBB3 were set at 500 nm to 550 nm, and detection wavelengths for Sulforhodamine 101 were set at 573 nm to 648 nm.

Like-named read-outs stand apart in the source and are kept apart here.

For `CNc1ccc(/C=C/C=C/c2nc3ccc(OCC(O)CF)cc3s2)cn1` (centres unmarked) [1-fluoro-3-(2-((1E,3E)-4-(6-(methylamino)pyridin-3-yl)buta-1,3-dienyl)benzo[d]thiazol-6-yloxy)propan-2-ol], the “binding selectivity for the α-synuclein aggregate compared with a tau aggregate” value (“binding selectivity … with a tau aggregate” for short) in experiment [1] is reported as “higher binding selectivity for an aggregate of tau proteins than to an α-synuclein aggregate”.
For `CN(C)c1ccc(C#C/C=C/c2nc3ccc(O)cc3s2)cc1` [C05-08, (E)-2-(4-(4-(dimethylamino)phenyl)but-1-en-3-ynyl)benzo[d]thiazol-6-ol], the “binding to the α-synuclein aggregate formed in the brain of the DLB patient, reactivity relative to PBB3” value (shortened to “binding … reactivity relative to PBB3”) in experiment [2] is “reactivity equal to or greater than that of PBB3”.
Same read-out and setting: the value for `CNc1ccc(C#C/C=C/c2nc3ccc(O)cc3s2)c(F)n1` [C05-01, (E)-2-(4-(2-fluoro-6-(methylamino)pyridin-3-yl)but-1-en-3-ynyl)benzo[d]thiazol-6-ol] was “reactivity equal to or greater than that of PBB3”.
Still for that read-out and setting: the value for `CNc1ccc(C#C/C=C/c2cc3cc(O)ccc3o2)c(F)n1` [C06-02] was “reactivity equal to or greater than that of PBB3”.
Same read-out and setting: next, `CNc1ccc(C#C/C=C/c2nc3ccc(CN)cc3s2)cn1` [C05-02, (E)-5-(4-(6-(aminomethyl)benzo[d]thiazol-2-yl)but-3-en-1-ynyl)-N-methylpyridine-2-amine]: “reactivity equal to or greater than that of PBB3”; `CNc1ccc(C#C/C=C/c2nc3ccc(OC)cc3s2)c(F)n1` [C05-04]: “reactivity equal to or greater than that of PBB3”.
On to `CNc1ccc(C#C/C=C/c2nc3ccc(O)cc3s2)cn1` [C05-03, (E)-2-(4-(6-(methylamino)pyridin-3-yl)but-1-en-3-ynyl)benzo[d]thiazol-6-ol], for which the “binding … reactivity relative to PBB3” value in experiment [2] is on record as “reactivity equal to or greater than that of PBB3”.
Turning to `CN([11CH3])c1ncc(/C=C/c2nc3ccc(OCCF)cc3o2)s1` [[^11C]BF-227], in experiment [3] (binds to an amyloid-β aggregate), the “binding selectivity for the α-synuclein aggregate” value was “low”. In addition, in experiment [3], the “binding affinity for the α-synuclein aggregate” value is “insufficient” and the “detection of α-synuclein lesions in patients by PET” value is listed as “only in a subset of MSA patients”.
Regarding `CNc1ccc(C#C/C=C/c2nc3ccc(O)cc3s2)cc1` [C05-09, (E)-2-(4-(4-(methylamino)phenyl)but-1-en-3-ynyl)benzo[d]thiazol-6-ol], the “binding … reactivity relative to PBB3” value in experiment [2] is given as “reactivity equal to or greater than that of PBB3”.
Consider `CNc1ccc(/C=C/C=C/c2nc3ccc(OCC(O)C[18F])cc3s2)cn1` (centres unmarked) [1-(18)F-fluoro-3-(2-((1E,3E)-4-(6-(methylamino)pyridin-3-yl)buta-1,3-dienyl)benzo[d]thiazol-6-yloxy)propan-2-ol], for which the “binding selectivity … with a tau aggregate” value in experiment [1] is on record as “higher binding selectivity for an aggregate of tau proteins than to an α-synuclein aggregate”.
`[11CH3]Nc1ccc(/C=C/C=C/c2nc3ccc(O)cc3s2)cn1` [2-((1E,3E)-4-(6-((11)C-methylamino)pyridin-3-yl)buta-1,3-dienyl)benzo[d]thiazol-6-ol]: in experiment [1], the “binding selectivity … with a tau aggregate” value is “higher binding selectivity for an aggregate of tau proteins than to an α-synuclein aggregate”.
With `CN(C)c1ncc(/C=C/c2nc3ccc(OCCF)cc3o2)s1` [BF-227, 2-(2-[2-dimethylaminothiazol-5-yl]ethenyl)-6-5 (2-[fluoro]ethoxy)benzoxazole, reference compound], in experiment [2] (30 μM, DLB patient brain sections), the “binding to the α-synuclein aggregate relative to the compounds represented by the formula (I)” value is given as “weaker than the compounds represented by the formula (I)”. In experiment [4], the “detection of α-synuclein lesions by ex vivo imaging” value is recorded as “no lesion was detected”. The aggregate mainly bound result in experiment [5] is listed as “mainly bound to the amyloid-β aggregate of AD”.
Turning to `CNc1ccc(/C=C/C=C/c2nc3ccc(O)cc3s2)cn1` [PBB3, 2-((1E,3E)-4-(6-(methylamino)pyridin-3-yl)buta-1,3-dienyl)benzo[d]thiazol-6-ol], the “binding selectivity … with a tau aggregate” value was “lower binding selectivity for the α-synuclein aggregate as compared with its binding selectivity for a tau aggregate” in experiment [1] and “higher binding selectivity for an aggregate of tau proteins than to an α-synuclein aggregate” in experiment [1] (listed as 2-((1E,3E)-4-(6-(methylamino)pyridin-3-yl)buta-1,3-dienyl)benzo[d]thiazol-6-ol). The “binding to the α-synuclein aggregate” value in experiment [1] was “some degree of affinity”. Further, the “detection of α-synuclein lesions by intravital two-photon fluorescence imaging” value in experiment [6] is reported as “no lesion was detected”.
